The values below come from paper PMC2935281 (Acta Crystallographica Section D: Biological Crystallography, 2010).

For assay [1], the target named is T1, B. anthracis lumazine synthase (BaLS) (Bacillus anthracis, UniProt Q81MB5). Put plainly: biochemical. To be noted: for Mechanism: pH 7.
For assay [2], the target named is T1, B. anthracis lumazine synthase (BaLS). The assay can be described thus: biochemical. Format: binding. Conditions: for Binding enthalpy ΔH / Free energy of binding ΔG / No. of sites n / TΔS: pH 7.
For assay [3], the target named is LS from M. tuberculosis (MtLS). Conditions: read-out: Dissociation constant Kd; cited from earlier work.
For another assay, the target named is C. albicans LS (CaLS). Conditions: read-out: Dissociation constant Kd; cited from earlier work.

T1 sequence (Q81MB5 whole entry, looked up): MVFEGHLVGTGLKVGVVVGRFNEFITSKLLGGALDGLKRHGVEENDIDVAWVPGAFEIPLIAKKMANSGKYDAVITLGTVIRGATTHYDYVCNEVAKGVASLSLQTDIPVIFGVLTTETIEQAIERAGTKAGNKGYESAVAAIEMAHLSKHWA

Regarding `O=c1[nH]c(Cl)c(CCCCOP(=O)(O)O)c(=O)[nH]1` [JC33, 4-(6-Chloro-2,4-dioxo-1,2,3,4-tetrahydropyrimidine-5-yl)-n-butyl 1-phosphate], in assay [1], the Ki – broadly, a dissociation constant, usually derived from enzyme kinetics or from competition with a known ligand – amounted to 23 nM and the Mechanism result is “Competitive”. In addition, in assay [1] (pH 7.0), the Ks is reported as 8.0 ± 0.5 µM; the kcat (usually the number of substrate molecules converted per active site and unit of time at saturation) worked out at 0.01 ± 0.00017 s⁻¹. Moreover, in assay [2], the dissociation constant Kd (commonly the equilibrium constant for the complex coming apart) amounted to 1750 ± 40 nM, the “Binding enthalpy ΔH” value was -7.50 ± 0.07 kcal/mol, the “Free energy of binding ΔG” value was -7.98 ± 0.02 kcal/mol and the “No. of sites n” value came out at 0.98 ± 0.04. In assay [2], this molecule yielded a TΔS of 0.47 ± 0.07 kcal/mol. Moreover, the Kd in assay [3] was 720 ± 20 nM. At C. albicans LS (CaLS), the Kd was 150 ± 40 nM.
As to `O=c1[nH]c(Cl)c(CCCCCP(=O)(O)O)c(=O)[nH]1` [JC72, 5-(6-chloro-2,4-dioxo-1,2,3,4-tetrahydropyrimidine-5-yl)-n-pentyl 1-phosphonate], in assay [1], affinity was put at a Ki of 430 nM, the “increase of the Ki value in comparison to JC33” value is on record as “approximately 20 fold” and the Mechanism result is “Partial”. In assay [1] (pH 7.0), the Kis is given as 9.5 ± 3.5 µM, the Ks came out at 8.5 ± 0.5 µM, the kcat is 0.01 ± 0.00017 s⁻¹ and the “k′cat” value amounted to 0.28 ± 0.09 min⁻¹. Further, in assay [2], the Kd stood at 3940 ± 10 nM, the “Binding enthalpy ΔH” value is -5.29 ± 0.8 kcal/mol, the “Free energy of binding ΔG” value was -7.49 ± 0.01 kcal/mol and the “No. of sites n” value amounted to 0.98 ± 0.12. Also, in assay [2], the TΔS came to 2.20 ± 0.79 kcal/mol.
